This passage reports Ki results from US8129399B2, “Aminopyrimidines useful as kinase inhibitors” (Vertex Pharmaceuticals Incorporated, priority 2005, dated 2012).

The target of this test is T1, JAK3 (Homo sapiens, UniProt P52333).
T1 sequence (P52333 1-1124): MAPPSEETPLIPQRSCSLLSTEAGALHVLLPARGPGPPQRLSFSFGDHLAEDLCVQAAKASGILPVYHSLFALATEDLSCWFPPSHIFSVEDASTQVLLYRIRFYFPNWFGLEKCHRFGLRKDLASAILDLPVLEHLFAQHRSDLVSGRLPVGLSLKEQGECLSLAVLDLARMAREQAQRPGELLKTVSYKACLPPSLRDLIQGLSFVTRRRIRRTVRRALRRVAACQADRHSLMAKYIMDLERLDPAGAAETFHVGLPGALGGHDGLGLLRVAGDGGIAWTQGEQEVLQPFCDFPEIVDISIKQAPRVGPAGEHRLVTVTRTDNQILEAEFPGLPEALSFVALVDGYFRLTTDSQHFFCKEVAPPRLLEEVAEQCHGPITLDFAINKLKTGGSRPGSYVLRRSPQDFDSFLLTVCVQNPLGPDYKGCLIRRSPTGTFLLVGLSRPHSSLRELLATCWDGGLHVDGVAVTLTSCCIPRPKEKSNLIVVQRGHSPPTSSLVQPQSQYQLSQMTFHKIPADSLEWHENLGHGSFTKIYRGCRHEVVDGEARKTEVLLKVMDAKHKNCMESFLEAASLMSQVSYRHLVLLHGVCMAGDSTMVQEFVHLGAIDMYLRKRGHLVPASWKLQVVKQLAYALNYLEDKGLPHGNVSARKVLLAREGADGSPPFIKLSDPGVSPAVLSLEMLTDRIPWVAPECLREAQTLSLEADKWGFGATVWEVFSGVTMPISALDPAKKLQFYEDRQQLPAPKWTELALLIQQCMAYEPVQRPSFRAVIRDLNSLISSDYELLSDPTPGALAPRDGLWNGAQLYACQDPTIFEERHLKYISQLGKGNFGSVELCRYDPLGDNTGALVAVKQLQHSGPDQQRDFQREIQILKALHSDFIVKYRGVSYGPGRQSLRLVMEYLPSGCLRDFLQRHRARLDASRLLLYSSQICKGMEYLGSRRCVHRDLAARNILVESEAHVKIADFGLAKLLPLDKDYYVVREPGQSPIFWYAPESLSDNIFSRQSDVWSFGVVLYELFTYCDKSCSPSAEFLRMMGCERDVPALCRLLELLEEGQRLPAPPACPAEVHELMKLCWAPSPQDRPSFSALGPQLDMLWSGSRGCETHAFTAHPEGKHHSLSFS
In words: JAK3 inhibition assay. Type of test: biochemical. The procedure:
Reactions were carried out in a kinase buffer containing 100 mM HEPES (pH 7.4), 1 mM DTT, 10 mM MgCl2, 25 mM NaCl, and 0.01% BSA. Substrate concentrations in the assay were 5 μM ATP (200 uCi/μmole ATP) and 1 μM poly(Glu)4Tyr. Reactions were carried out at 25° C. and 1 nM JAK3.
To each well of a 96 well polycarbonate plate was added 1.5 μl of a candidate JAK3 inhibitor along with 50 μl of kinase buffer containing 2 μM poly(Glu)4Tyr and 10 μM ATP. This was then mixed and 50 μl of kinase buffer containing 2 nM JAK3 enzyme was added to start the reaction. After 20 minutes at room temperature (25 C), the reaction was stopped with 50 μl of 20% trichloroacetic acid (TCA) that also contains 0.4 mM ATP. The entire contents of each well were then transferred to a 96 well glass fiber filter plate using a TomTek Cell Harvester. After washing, 60 μl of scintillation fluid was added and ^33P incorporation detected on a Perkin Elmer TopCount.

One may read the Ki as the equilibrium dissociation constant of an inhibitor or competing ligand from its target.

In turn, `CCC(=O)Nc1ccc(Sc2nc(Nc3cc(C)n[nH]3)cc(N3CC(O)(C4CC4)C3)n2)cc1` [Compound I-2] returned an inhibition constant Ki of 160 nM.

`CCC(=O)Nc1ccc(Sc2nc(Nc3cc(C)n[nH]3)cc(N3CC(O)(C4CCCC4)C3)n2)cc1` [Compound I-3]: the Ki was 150 nM.

Take `CCC(=O)Nc1ccc(Sc2nc(Nc3cc(C)n[nH]3)cc(N3CC(O)(C(C)C)C3)n2)cc1` [Compound I-5]: the inhibition constant (Ki) worked out at 100 nM.

`CCC(=O)Nc1ccc(Sc2nc(Nc3cc(C)n[nH]3)cc(N3CC(O)(C(C)CC)C3)n2)cc1` (stereo not shown) [Compound I-6] had a Ki of 190 nM.

Regarding `CCC(=O)Nc1ccc(Sc2nc(Nc3cc(C4CC4)[nH]n3)cc(N3CC(O)(C4CC4)C3)n2)cc1` [Compound I-7], the inhibition constant Ki came out at 37 nM.

As to `Cc1cc(Nc2cc(N3CC(O)(C4CC4)C3)nc(Sc3ccc(NC(=O)C4CC4)cc3)n2)n[nH]1` [Compound I-8], the Ki is 140 nM.

Turning to `Cc1cc(Nc2cc(N3CC(O)(C4CC4)C3)nc(Sc3ccc(NC(=O)C4CCCC4)cc3)n2)[nH]n1` [Compound I-9, N-(4-((4-(3-methyl-1H-pyrazol-5-ylamino)-6-(3-cyclopropyl-3-hydroxyazetidin-1-yl)pyrimidin-2-yl)sulfanyl)phenyl)cyclopentanecarboxamide], the Ki stood at 150 nM.

`O=C(Nc1ccc(Sc2nc(Nc3cc(C4CC4)[nH]n3)cc(N3CC(O)(C4CC4)C3)n2)cc1)C1CC1` [Compound I-10] showed a Ki of 51 nM. This Ki lies about 2.9-fold lower than the previous one.

`Cc1cc(Nc2cc(N3CC(O)(C4CC4)C3)nc(Sc3ccc(NC(=O)C4CC4)cc3F)n2)[nH]n1` [Compound I-11, N-(4-((4-(3-methyl-1H-pyrazol-5-ylamino)-6-(3-cyclopropyl-3-hydroxyazetidin-1-yl)pyrimidin-2-yl)sulfanyl)-3-fluorophenyl)cyclopropanecarboxamide] showed a Ki of 56 nM.

For `Cc1cc(Nc2cc(N3CC(O)(C4CC4)C3)nc(Sc3ccc(NC(=O)C4CC4(F)F)cc3)n2)[nH]n1` (stereo not shown) [Compound I-12], the Ki turned out to be 28 nM.

As for `Cc1cc(Nc2cc(N3CC(F)(C4CC4)C3)nc(Sc3ccc(NC(=O)C4CC4)cc3)n2)n[nH]1` [Compound I-13], the Ki was found to be 290 nM.

Consider `Cc1cc(Nc2cc(N3CC(F)(C4CC4)C3)nc(Sc3ccc(NC(=O)CC(F)(F)F)cc3)n2)[nH]n1` [Compound I-14, N-(4-(4-(3-methyl-1H-pyrazol-5-ylamino)-6-(3-cyclopropyl-3-fluoroazetidin-1-yl)pyrimidin-2-ylthio)phenyl)-3,3,3-trifluoropropanamide], for which the affinity corresponds to a Ki of 77 nM.

Molecule `Cc1cc(Nc2cc(N3CC(F)(C4CC4)C3)nc(Sc3ccc(NC(=O)C4CC4)cc3F)n2)n[nH]1` [Compound I-18] yielded a Ki of 220 nM.

`Cc1cc(Nc2cc(N3CC(F)(C4CC4)C3)nc(Sc3ccc(NC(=O)CC4CC4)cc3)n2)[nH]n1` [Compound I-19] had a Ki of 620 nM.

For `Cc1cc(Nc2cc(N3CC(F)(C4CC4)C3)nc(Sc3ccc(NC(=O)C4CC4(F)F)cc3)n2)[nH]n1` (stereo not shown) [Compound I-20], the Ki worked out at 110 nM. Compared with the last molecule, the Ki is about 5.6-fold lower.

Regarding `Cc1cc(Nc2cc(N3CC(F)(C4CC4)C3)nc(Sc3ccc(NC(=O)CC(F)(F)F)nc3)n2)[nH]n1` [Compound I-21, N-(5-(4-(3-methyl-1H-pyrazol-5-ylamino)-6-(3-cyclopropyl-3-fluoroazetidin-1-yl)pyrimidin-2-ylthio)pyridin-2-yl)-3,3,3-trifluoropropanamide], the Ki turned out to be 100 nM.
